# Experimental data: US7446199B2, “Compositions useful as inhibitors of protein kinases” (Vertex Pharmaceuticals Incorporated, priority 2003, dated 2008)
# Molecular target: T1, JAK3 (Homo sapiens, UniProt P52333)
# T1 sequence (P52333 1-1124): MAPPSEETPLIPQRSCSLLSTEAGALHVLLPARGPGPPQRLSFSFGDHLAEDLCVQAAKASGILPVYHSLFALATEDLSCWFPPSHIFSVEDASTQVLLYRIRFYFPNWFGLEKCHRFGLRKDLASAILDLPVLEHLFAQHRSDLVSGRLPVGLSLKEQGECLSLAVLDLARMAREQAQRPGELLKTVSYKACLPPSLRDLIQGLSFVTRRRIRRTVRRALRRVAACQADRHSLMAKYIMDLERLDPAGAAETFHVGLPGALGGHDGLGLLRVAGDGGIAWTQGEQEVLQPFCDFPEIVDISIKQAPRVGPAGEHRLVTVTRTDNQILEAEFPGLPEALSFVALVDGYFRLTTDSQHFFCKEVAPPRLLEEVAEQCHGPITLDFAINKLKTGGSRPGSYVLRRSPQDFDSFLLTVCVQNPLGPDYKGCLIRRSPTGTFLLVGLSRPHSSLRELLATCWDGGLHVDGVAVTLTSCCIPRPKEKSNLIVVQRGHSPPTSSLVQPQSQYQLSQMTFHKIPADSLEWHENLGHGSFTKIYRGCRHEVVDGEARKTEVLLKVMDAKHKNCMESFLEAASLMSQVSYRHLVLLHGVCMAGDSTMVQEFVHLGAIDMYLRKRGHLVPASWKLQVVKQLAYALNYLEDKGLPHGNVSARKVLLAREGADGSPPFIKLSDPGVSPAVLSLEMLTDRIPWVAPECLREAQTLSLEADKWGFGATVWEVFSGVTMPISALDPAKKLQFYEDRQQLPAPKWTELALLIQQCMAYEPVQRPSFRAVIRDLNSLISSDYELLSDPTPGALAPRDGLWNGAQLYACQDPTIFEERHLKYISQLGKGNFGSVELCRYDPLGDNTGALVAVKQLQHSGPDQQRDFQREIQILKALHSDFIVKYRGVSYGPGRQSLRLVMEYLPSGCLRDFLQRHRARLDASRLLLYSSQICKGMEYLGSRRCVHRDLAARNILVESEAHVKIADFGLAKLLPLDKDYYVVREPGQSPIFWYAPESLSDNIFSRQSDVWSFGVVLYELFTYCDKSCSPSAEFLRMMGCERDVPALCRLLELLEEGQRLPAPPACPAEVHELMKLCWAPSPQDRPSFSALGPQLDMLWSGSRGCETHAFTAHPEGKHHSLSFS
# Test: JAK3 inhibition assay (ELISA, Poly (Glu, Ala, Tyr) coated plates)
# Assay type: biochemical
# Conditions: 2 mM ATP, 60 minutes at 30° C.
# In short: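 ELISA on Poly(Glu,Ala,Tyr) 6:3:1-coated plates with 2 mM ATP and 5 mM MgCl2. JAK enzyme started the reaction, run 60 min at 30° C. Phosphotyrosine was detected with HRP-conjugated 4G10 antibody and TMB, read at 450 nm, and IC50 was derived from optical densities.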
row,Ki,Compound
1,0.2 to 1 µM,"Fc1cccc(-n2cnnc2-c2c[nH]c3ncc(-c4ccc(CN5CCOCC5)cc4)cc23)c1F [Compound 109, 3-[4-(2,3-Difluoro-phenyl)-4H-[1,2,4]triazol-3-yl]-5-(4-morpholin-4-ylmethyl-phenyl)-1H-pyrrolo[2,3-b]pyridine]"
2,0.2 to 1 µM,"OC1CCN(c2ccc(-c3cnc4[nH]cc(-c5nncn5-c5cccc(F)c5F)c4c3)cn2)CC1 [Compound 116, 5′-{3-[4-(2,3-Difluoro-phenyl)-4H-[1,2,4]triazol-3-yl]-1H-pyrrolo[2,3-b]pyridin-5-yl}-3,4,5,6-tetrahydro-2H-[1,2′]bi-pyridinyl-4-ol]"
3,1 to 12.5 µM,"Fc1cccc(-n2cnnc2-c2c[nH]c3ncc(-c4cccnc4)cc23)c1F [Compound 113, 3-[4-(2,3-Difluoro-phenyl)-4H-[1,2,4]triazol-3-yl]-5-pyridin-3-yl-1H-pyrrolo[2,3-b]pyridine]"
4,< 0.2 µM,"CN(C)c1ccc(-c2cnc3[nH]cc(-c4oncc4-c4cccc(F)c4F)c3c2)cc1 [Compound 88, (4-{3-[4-(2,3-Difluoro-phenyl)-isoxazol-5-yl]-1H-pyrrolo[2,3-b]pyridin-5-yl}-phenyl)-dimethyl-amine]"
5,1 to 12.5 µM,"Fc1cccc(-n2cnnc2-c2c[nH]c3ncc(-c4ccncc4)cc23)c1F [Compound 114, 3-[4-(2,3-Difluoro-phenyl)-4H-[1,2,4]triazol-3-yl]-5-pyridin-4-yl-1H-pyrrolo[2,3-b]pyridine]"
6,0.2 to 1 µM,"CN(C)c1ccc(-c2cnc3[nH]cc(-c4nncn4-c4cccc(F)c4F)c3c2)cc1 [Compound 106, (4-{3-[4-(2,3-Difluoro-phenyl)-4H-[1,2,4]triazol-3-yl]-1H-pyrrolo[2,3-b]pyridin-5-yl}-phenyl)-dimethyl-amine]"
7,1 to 12.5 µM,"Fc1cccc(-n2cnnc2-c2c[nH]c3ncc(-c4ccc(N5CCC[C@H]5CN5CCCC5)nc4)cc23)c1F [Compound 115, 3-[4-(2,3-Difluoro-phenyl)-4H-[1,2,4]triazol-3-yl]-5-[6-(2-pyrrolidin-1-ylmethyl-pyrrolidin-1-yl)-pyridin-3-yl]-1H-pyrrolo[2,3-b]pyridine]"
8,0.2 to 1 µM,"CN1CCN(c2ccc(-c3cnc4[nH]cc(-c5nncn5-c5cccc(F)c5F)c4c3)cc2)CC1 [Compound 110, 3-[4-(2,3-Difluoro-phenyl)-4H-[1,2,4]triazol-3-yl]-5-[4-(4-methyl-piperazin-1-yl)-phenyl]-1H-pyrrolo[2,3-b]pyridine]"
9,1 to 12.5 µM,CN1CCN(c2ccc(-c3cnc4[nH]cc(-c5nncn5-c5cccc(F)c5F)c4c3)cn2)CC1 [Compound 112]
10,0.2 to 1 µM,"Fc1ccc(-c2cnc3[nH]cc(-c4oncc4-c4cccc(F)c4F)c3c2)cn1 [Compound 69, 3-[4-(2,3-Difluoro-phenyl)-isoxazol-5-yl]-5-(6-fluoro-pyridin-3-yl)-1H-pyrrolo[2,3-b]pyridine]"
11,1 to 12.5 µM,"CN1CCCN(c2ccc(-c3cnc4[nH]cc(-c5nncn5-c5cccc(F)c5F)c4c3)cn2)CC1 [Compound 117, 3-[4-(2,3-Difluoro-phenyl)-4H-[1,2,4]triazol-3-yl]-5-[6-(4-methyl-[1,4]diazepan-1-yl)-pyridin-3-yl]-1H-pyrrolo [2,3-b]-pyridine]"

# More lines, now with the values behind:
row,Compound,Ki
1,"CN(C)CC#Cc1cnc2[nH]cc(-c3oncc3-c3cccc(F)c3F)c2c1 [Compound 53, (3-{3-[4-(2,3-Difluoro-phenyl)-isoxazol-5-yl]-1H-pyrrolo[2,3-b]pyridin-5-yl}-prop-2-ynyl)-dimethyl-amine]",0.2 to 1 µM
2,"CN(C)c1ccnc(-c2cnc3[nH]cc(-c4oncc4-c4cccc(F)c4F)c3c2)c1 [Compound 80, (2-{3-[4-(2,3-Difluoro-phenyl)-isoxazol-5-yl]-1H-pyrrolo[2,3-b]pyridin-5-yl}-pyridin-4-yl)-dimethyl-amine]",1 to 12.5 µM
3,"Fc1cccc(-c2cnoc2-c2c[nH]c3ncc(-c4cnc5[nH]ccc5c4)cc23)c1F [Compound 77, 3-[4-(2,3-Difluoro-phenyl)-isoxazol-5-yl]-1H,1′H-[5,5′]bi[pyrrolo[2,3-b]pyridinyl]]",< 0.2 µM
4,"CS(=O)(=O)n1ccc2cc(-c3cnc4[nH]cc(-c5oncc5-c5cccc(F)c5F)c4c3)cnc21 [Compound 97, 3′-[4-(2,3-Difluoro-phenyl)-isoxazol-5-yl]-1-methanesulfonyl-1H, 1′H-[5,5′]bi[pyrrolo[2,3-b]pyridinyl]]",0.2 to 1 µM
5,"CC(=O)N1CCC(c2cnc3[nH]cc(-c4oncc4-c4cccc(F)c4F)c3c2)CC1 [Compound 63, 1-(4-{3-[4-(2,3-Difluoro-phenyl)-isoxazol-5-yl]-1H-pyrrolo[2,3-b]pyridin-5-yl}-piperidin-1-yl)-ethanone]",0.2 to 1 µM
6,"CN(C)C(=O)c1ccc(-c2cnc3[nH]cc(-c4oncc4-c4cccc(F)c4F)c3c2)nc1 [Compound 79, 6-{3-[4-(2,3-Difluoro-phenyl)-isoxazol-5-yl]-1H-pyrrolo [2,3-b]pyridin-5-yl}-N,N-dimethyl-nicotinamide]",< 0.2 µM
7,"Fc1cccc(-c2cnoc2-c2c[nH]c3ncc(C4CCNCC4)cc23)c1F [Compound 62, 3-[4-(2,3-Difluoro-phenyl)-isoxazol-5-yl]-5-piperidin-4-yl-1H-pyrrolo[2,3-b]pyridine]",1 to 12.5 µM
8,"CCN1CCC(c2cnc3[nH]cc(-c4oncc4-c4cccc(F)c4F)c3c2)CC1 [Compound 72, 3-[4-(2,3-Difluoro-phenyl)-isoxazol-5-yl]-5-(1-ethyl-piperidin-4-yl)-1H-pyrrolo[2,3-b]pyridine]",1 to 12.5 µM
9,"Fc1cccc(-c2cnoc2-c2c[nH]c3ncc(C4=CCC(NCc5ccccc5)CC4)cc23)c1F (stereo not drawn) [Compound 136, Benzyl-(4-{3-[4-(2,3-difluoro-phenyl)-isoxazol-5-yl]-1H-pyrrolo[2,3-b]pyridin-5-yl}-cyclohex-3-enyl)-amine]",< 0.2 µM
10,"Fc1cccc(-c2cnoc2-c2c[nH]c3ncc(-c4ccccn4)cc23)c1F [Compound 73, 3-(4-(2,3-Difluoro-phenyl)-isoxazol-5-yl)-5-pyridin-2-yl-1H-pyrrolo[2,3-b]pyridine]",< 0.2 µM
11,"Cn1ccc2c(-c3oncc3-c3cccc(F)c3F)c[nH]c2c1=O [Compound 144, 3-[4-(2,3-Difluoro-phenyl)-isoxazol-5-yl]-6-methyl-1,6-dihydro-pyrrolo[2,3-c]pyridin-7-one]",1 to 12.5 µM
12,"CN1CCN(C(=O)[C@H]2C[C@H]2c2cnc3[nH]cc(-c4oncc4-c4cccc(F)c4F)c3c2)CC1 (relative stereo) [Compound 143, cis-(2-{3-[4-(2,3-Difluoro-phenyl)-isoxazol-5-yl]-1H-pyrrolo[2,3-b]pyridin-5-yl}-cyclopropyl)-(4-methyl-piperazin-1-yl)-methanone]",1 to 12.5 µM
13,"Fc1cccc(Cc2cnoc2-c2c[nH]c3ncccc23)c1F [Compound 36, 3-[4-(2,3-Difluoro-benzyl)-isoxazol-5-yl]-1H-pyrrolo[2,3-b]pyridine]",1 to 12.5 µM
14,"CN(C)c1ccnc2[nH]cc(-c3oncc3-c3cccc(F)c3F)c12 [Compound 56, {3-[4-(2,3-Difluoro-phenyl)-isoxazol-5-yl]-1H-pyrrolo[2,3-b]pyridin-4-yl}-dimethyl-amine]",0.2 to 1 µM
15,"COC(=O)c1cnc2[nH]cc(-c3oncc3-c3cccc(F)c3F)c2c1 [Compound 105, 3-[4-(2,3-Difluoro-phenyl)-isoxazol-5-yl]-1H-pyrrolo[2,3-b]pyridine-5-carboxylic acid methyl ester]",< 0.2 µM
16,"CN1CCC(c2cnc3[nH]cc(-c4oncc4-c4cccc(F)c4F)c3c2)CC1 [Compound 60, 3-[4-(2,3-Difluoro-phenyl)-isoxazol-5-yl]-5-(1-methyl-piperidin-4-yl)-1H-pyrrolo[2,3-b]pyridine]",1 to 12.5 µM
17,"Fc1cccc(-c2cnoc2-c2c[nH]c3ncc(C4=CCC(N5CCOCC5)CC4)cc23)c1F (stereo not drawn) [Compound 139, 3-[4-(2,3-Difluoro-phenyl)-isoxazol-5-yl]-5-(4-morpholin-4-yl-cyclohex-1-enyl)-1H-pyrrolo[2,3-b]pyridine]",< 0.2 µM
18,Nc1[nH]c2ncccc2c1-c1oncc1-c1cccc(F)c1F [Compound 152],1 to 12.5 µM
19,"NC1CC=C(c2cnc3[nH]cc(-c4oncc4-c4cccc(F)c4F)c3c2)CC1 (stereo not drawn) [Compound 137, 4-{3-[4-(2,3-Difluoro-phenyl)-isoxazol-5-yl]-1H-pyrrolo [2,3-b]pyridin-5-yl}-cyclohex-3-enylamine]",< 0.2 µM
